Results as given in patent publication US20240376085A1 (Janssen Pharmaceutica NV, priority 2021, published 2024).

How the values were obtained:
IL-17A : IL-17RA binding = biological target: T1, IL-17A : IL-17RA binding (Homo sapiens, UniProt Q16552, K93Q); test: IL-17A(FLAG-tagged):IL-17RA(His-tagged) binding disruption Eu-HTRF assay, Protocol 1; settings: FLAG-IL-17A 2.5 nM at 2x final concentration; average if tested more than once
T1 construct: Name: IL-17A-Flag
Procedure, shortened: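 IC50 came from a one-site competition fit of the acceptor/donor (665/620 nm) HTRF ratio. His-tagged IL-17RA, Eu-anti-FLAG and D2-anti-His were added after a 1 h rt compound preincubation with FLAG-tagged IL-17A dimer in PBS/0.01% Triton X-100, followed by 2 h at rt before reading.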

[1] = system: IL-17A-induced G-CSF production in human normal keratinocyte (NHK); test: NHK assay: IL-17A-induced G-CSF production in normal human keratinocytes; assay type: cell-based; settings: 24 h, IL-17A 5 ng/mL, average if tested more than once
Procedure, shortened: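 IC50 derives from G-CSF in supernatants, quantified by HTRF from a standard curve, with CellTiter-Glo viability compared to DMSO control. Before a 24 h, 37°C culture of normal human keratinocytes at 3000–4000 cells/well, compound dilutions were preincubated 1 h at rt with human IL-17A (5 ng/mL final), with 0.2% DMSO and 5% FBS.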

T1 sequence (Q16552 with tags, fused parts or gaps K93Q): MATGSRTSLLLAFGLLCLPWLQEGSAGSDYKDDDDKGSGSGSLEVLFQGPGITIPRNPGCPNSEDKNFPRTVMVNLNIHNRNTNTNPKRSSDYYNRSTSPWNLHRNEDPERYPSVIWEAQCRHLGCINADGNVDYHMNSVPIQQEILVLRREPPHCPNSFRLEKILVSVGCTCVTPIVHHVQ

| IC50 (IL-17A : IL-17RA binding) [nM] | SMILES | IC50 ([1]; Homo sapiens, Keratinocyte) [nM] | IC50 [1] [nM] |
| --- | --- | --- | --- |
| > 100 | CC(C)n1nccc1C(=O)N[C@H](c1nc2ccc([C@H](NC(=O)CC3CC(F)(F)C3)C3CC3)cc2[nH]1)C1CC(F)(F)CCO1 (single isomer, unassigned) [Example 172, N—((R)-(6-((R)-Cyclopropyl(2-(3,3-difluorocyclobutyl)acetamido)methyl)-1H-benzo[d]imidazol-2-yl)((S*)-4,4-difluorotetrahydro-2H-pyran-2-yl)methyl)-1-isopropyl-1H-pyrazole-5-carboxamide] | < 50 |  |
| < 50 | C[C@@H](O[C@H](C)C(F)(F)F)[C@H](NC(=O)c1nonc1C1CC1)c1nc2ccc([C@H](NC(=O)C[C@H]3CC3(F)F)C3(C#N)CC3)cc2[nH]1 [Example 269, N-((1R,2R)-1-(6-((S)-(1-Cyanocyclopropyl)(2-((S)-2,2-difluorocyclopropyl)acetamido)methyl)-1H-benzo[d]imidazol-2-yl)-2-(((R)-1,1,1-trifluoropropan-2-yl)oxy)propyl)-4-cyclopropyl-1,2,5-oxadiazole-3-carboxamide] | < 50 |  |
| < 50 | Cc1nonc1C(=O)N[C@@H](CC(C)(C)C(F)(F)F)c1nc2ccc([C@H](NC(=O)CC3CC3(F)F)C3CC3)cc2[nH]1 (single isomer, unassigned) [Example 183, N—((S)-1-(6-((R)-Cyclopropyl(2-((R*)-2,2-difluorocyclopropyl)acetamido)methyl)-1H-benzo[d]imidazol-2-yl)-4,4,4-trifluoro-3,3-dimethylbutyl)-4-methyl-1,2,5-oxadiazole-3-carboxamide] | > 100 |  |
| > 100 | C[C@@H](NC(=O)CCC(F)(F)F)c1ccc2nc([C@@H](NC(=O)c3cnnn3C3CC3)C3CCC(F)(F)CC3)[nH]c2c1 [Example 60, 1-Cyclopropyl-N—((S)-(4,4-difluorocyclohexyl)(6-((R)-1-(4,4,4-trifluorobutanamido)ethyl)-1H-benzo[d]imidazol-2-yl)methyl)-1H-1,2,3-triazole-5-carboxamide] | > 100 |  |
| > 100 | CC(NC(=O)CCC(F)(F)F)c1ccc2nc([C@H](CC(C)(C)C(F)(F)F)NC(=O)c3ccnn3C(C)C)[nH]c2c1 (single isomer, unassigned) [Example 232, 1-Isopropyl-N—((S)-4,4,4-trifluoro-3,3-dimethyl-1-(6-((R*)-1-(4,4,4-trifluorobutanamido)ethyl)-1H-benzo[d]imidazol-2-yl)butyl)-1H-pyrazole-5-carboxamide] |  | 50 to 100 |
| < 50 | CC(C)c1nonc1C(=O)NC(CC(C)(C)C(F)(F)F)c1nc2cc([C@@H](C)NC(=O)CCC(F)(F)F)ccc2[nH]1 (single isomer, unassigned) [Example 57, 4-Isopropyl-N—((S*)-4,4,4-trifluoro-3,3-dimethyl-1-(5-((R)-1-(4,4,4-trifluorobutanamido)ethyl)-1H-benzo[d]imidazol-2-yl)butyl)-1,2,5-oxadiazole-3-carboxamide] | < 50 |  |
| > 100 | C[C@@H](NC(=O)CCC(F)(F)F)c1ccc2[nH]c([C@@H](NC(=O)C3CC3)C3CCC(F)(F)CC3)nc2c1 [Example 94, N—((S)-(4,4-Difluorocyclohexyl)(5-((R)-1-(4,4,4-trifluorobutanamido)ethyl)-1H-benzo[d]imidazol-2-yl)methyl)cyclopropanecarboxamide] | > 100 |  |
| > 100 | CC(C)n1nccc1C(=O)NC(COC(C)(C)C(C)(F)F)c1nc2ccc([C@H](NC(=O)CC3CC(F)(F)C3)C3CC3)cc2[nH]1 (single isomer, unassigned) [Example 149, N—((R*)-1-(6-((R)-Cyclopropyl(2-(3,3-difluorocyclobutyl)acetamido)methyl)-1H-benzo[d]imidazol-2-yl)-2-((3,3-difluoro-2-methylbutan-2-yl)oxy)ethyl)-1-isopropyl-1H-pyrazole-5-carboxamide] | < 50 |  |
